BigSolDB 2.1

O=[N+]([O-])c1cc[nH]n1
solubility (mole fraction)
Details	283.15 K	288.15 K	293.15 K	298.15 K	303.15 K	308.15 K	313.15 K	318.15 K	323.15 K
in THF	0.00254	0.00305	0.00386	0.00456	0.00553	0.00654	0.00761	0.00903	0.0106
in acetone	0.0129	0.0152	0.0177	0.0202	0.0228	0.0261	0.0301	0.0339	0.0376
in acetonitrile	0.0148	0.017	0.0195	0.0223	0.0254	0.0289	0.0327	0.037	0.0418
in benzene	0.00052	0.00066	0.00086	0.00109	0.00139	0.00171	0.00215	0.00265	0.00323
in ethanol	0.0254	0.0292	0.0328	0.0364	0.041	0.0449	0.0548	0.0599	0.0646
in ethyl acetate	0.00586	0.00728	0.00905	0.0107	0.0133	0.0163	0.0196	0.0236	0.0282
in isopropyl acetate	0.00234	0.00292	0.00364	0.00456	0.00566	0.00695	0.00849	0.0102	0.0125
in methanol	0.00822	0.0131	0.017	0.0208	0.0256	0.0338	0.0455	0.0605	0.0854
in methyl acetate	0.0083	0.0102	0.0125	0.0149	0.0178	0.0209	0.0244	0.0282	0.032
in n-butyl acetate	0.00323	0.00423	0.00542	0.00687	0.00865	0.0107	0.0132	0.0159	0.0191
in n-propanol	0.0224	0.0255	0.0295	0.0336	0.0384	0.0442	0.0481	0.0551	0.0627
in n-propyl acetate	0.00676	0.00793	0.0092	0.0106	0.0123	0.0142	0.0165	0.0193	0.0225
in toluene	0.00148	0.00187	0.00232	0.00286	0.00354	0.00437	0.00514	0.00623	0.00729
in water	0.00032	0.0004	0.00051	0.00065	0.00083	0.00105	0.00133	0.0017	0.00216
